Measured values published in patent US20140141069A1, “BETA-GUANIDINOPROPIONIC ACID FOR THE TREATMENT OF HYPERTENSION” (priority 2011, published 2014).
Like-named read-outs stand apart in the source and are kept apart here.

Columns and labels:
[1] = tested on: ADP-dependent platelet aggregation; assay: Blood CK titration at 1 μmol/L ADP, platelet aggregation (pilot experiment); assay type: cell-based
creatine kinase [2] = settings: equimolar quantities of DNFB, cited from earlier work
[3] = tested on: Spontaneous Hypertension (SH) rats; assay: Blood pressure of non-obese SH rats on creatine-free diet with 0.1% β-guanidinopropionic acid; assay type: in vivo, rat; settings: feed contained 0.1% β-guanidinopropionic acid
Description: The effects of β-guanidinopropionic acid can not be explained by, for example, a reduction in weight.

[4] = Certified toxicological testing of marketed β-guanidinopropionic acid; settings: preliminary tests of product marketed for human use
[5] = cited from earlier work
SHR mesenteric arteries = assay: Vasodilation/contractility of SHR mesenteric arteries in vitro in a wire myograph with the CK-inhibitor DNFB; set-up: species or system rat; settings: p<0.01
SH rats = assay: Tail cuff blood pressure in SH adult rats given 3% β-GPA (Example 4); assay type: in vivo, rat; settings: 3% β-GPA in feed, tailcuff method
Experimental: A total of 24 SH adult rats are divided into 4 groups: the test group is given 3% β-GPA , a second group is given 3% creatine, a third group is given 3% creatine +3% β-GPA; and a control group receives only normal feed. SH rats are usually also associated with high creatine kinase levels, although it is unknown whether this is cause or result of the spontaneous high blood pressure. […] Blood pressure was measured at the tail using standard methods (tailcuff method). In the control group, the blood pressure rises. An absence in the rise of blood pressure or even a reduction in the blood pressure in the test group indicates the blood pressure lowering effect of β-GPA. In order to exclude a possible effect of creatine deficiency or a possible effect of creatine itself on the blood pressure level, the two additional control groups (3% creatine or 3% creatine +3% β-GPA).

[6] = tested on: myocardial phosphocreatine and creatine; settings: high doses; cited from earlier work
creatine kinase [7] = settings: creatine kinase reaction; cited from earlier work
rats = settings: 1% in rat chow, up to 8 weeks of feeding; cited from earlier work
SHR = assay: Tail cuff blood pressure in SHR on a diet with β-GPA versus standard diet (Example 5); assay type: in vivo, rat
Experimental: Male, non-obese, normoglycaemic, 16-weeks-old SHR without lipid abnormalities were randomly assigned to a diet with β-GPA versus a standard diet without β-GPA (N=8 per group). Blood pressure was measured weekly with the tail cuff method. All blood pressure measurements were performed unblinded under equal conditions. Body temperature was kept constant during the measurements at 36-38° C. […] Data are expressed as mean (SEM).

CN(CC(=O)O)C(=N)NP(=O)(O)O [CrP, phosphocreatine]
Inhibition of ADP-dependent platelet aggregation with increasing CK [1]: greater inhibition of ADP-dependent platelet aggregation

O=[N+]([O-])c1ccc(F)c([N+](=O)[O-])c1 [DNFB, dinitrofluorobenzene]
Mean inhibition of contraction (creatine kinase [2]; blacks): 0.32 | Mean inhibition of contraction (creatine kinase [2]; whites): 0.90

NC(N)=NCCC(=O)O [β-GPA, 3-(diaminomethylideneamino)propanoic acid]
Blood pressure rise characteristic for SH rats [3]: did not show blood pressure rise | Certified toxicological testing [4]: passed certified toxicological testing | Solubility in water [5]: up to 50 mg/ml | Residual contractility after the CK inhibitor DNFB, versus controls (SHR mesenteric arteries; mesenteric arteries of rats treated with β-GPA compared to controls, DNFB, mean (SEM)): −41.3 (13.0) % | Vasodilation of mesenteric arteries compared to controls (SHR mesenteric arteries; rats treated with β-GPA before sacrifice, in vitro incubation with dinitrofluorobenzene, N=5 to 6 per group): significantly increased | Blood pressure level versus control SH rats (SH rats): lower than that of the control SH rats | Reduction of myocardial phosphocreatine and creatine concentrations [6]: up to 80% | in vitro Vmax relative to the Vmax values of creatine and phosphocreatine (creatine kinase [7]): < 1% | Cardiac function or sprint capacity in vivo (rats): does not lead to reduced cardiac function or overtly reduced sprint capacity | Weight changes (SHR; diet with β-GPA): no significant weight changes | Systolic pressure reduction (SHR; diet with β-GPA vs controls, 4 weeks, tail cuff, mean (SEM), N=8 per group, p<0.001): −42.7 (5.5) mm Hg | Diastolic pressure reduction (SHR; diet with β-GPA vs controls, tail cuff, mean (SEM), p<0.001): −35.3 (4.8) mm Hg
